Results as given in patent publication US20160333019A1, “SYNTHESIS AND FORMULATIONS OF PORPHYRIN COMPOUNDS” (Aeolus Sciences, Inc., priority 2013, published 2016).

What was measured:
[1] = Study 2: 75 mg/mL Formula (VI) in WFI at pH 7.0, 14 days at 60° C.; assay type: physicochemical
Procedure: The samples were filled in glass vials and capped with an air headspace. All samples were tested and evaluated for physicochemical stability under the storage conditions at 2-8 and 60° C. after 0, 3, 7 and 14 days.
About 10 g of WFI was placed in the container including a stir bar.
The pH was measured at approximately hourly intervals and at about 16 hours and 24 hours. At the end of the 16-24 hour hold/mix, the pH of the solution was adjusted to pH 7.0 with either HCl or NaOH and mixed for approximately 15 minutes. The solution was filtered through a PVDF, 0.22 μm filter into a clean container and its pH measured.
The pH was measured at 30 minutes then hourly thereafter for the 16-24 hour time period. Once the solution pH and osmolality stabilized, the air sparging was stopped. The solution was adjusted to pH 7.0 with either HCl or NaOH and mixed for about 15 minutes. The solution was filtered through a PVDF, 0.22 μm filter into clean container and the pH measured.
Both samples were then stored at 60° C. and samples taken at 0, 3, 7 and 14 days from both containers and to measure pH. […]

[2] = pH titration of 75 mg/mL Formula (VI) in WFI with 1.0N HCl; assay type: physicochemical; settings: 75 mg/mL in water titrated with hydrochloric acid
Procedure: A solution of 75 mg/mL compound was prepared by dissolving in WFI and gently mixing for 16-24 hours prior to the titration. The titration of compound with a strong acid provided information for this compound in terms of “apparent” pKa.
In addition, this mixing would allow oxidation of trace Mn (II) compound to the higher oxidation state of Mn (III). The drug solution was titrated with 1.0 N HCl at 30 μL increments.
About 10 g of WFI was placed in the container including stir bar. […] The solution was them mixed at room temperature for 16-24 hours. At the end of the 16-24 hour hold/mix, the solution was titrated from its starting pH of about 9 down to pH 3 using 1N HCl.
Due to a big molecular structure (MW=1033), the sample preparation required an unusually long mixing process for 16-24 hours in order to complete the dissociation of drug and the oxidation of trace […] compound into a higher oxidation state of Mn (III). This mixing process was crucial to achieve the final pH equilibrium.

[5,10,15,20-tetrakis(1,3-diethylimidazolium-2-yl)porphyrinato]manganese(III) chloride hydrate complex [Formula (VI)]
dependence of drug stability on pH ([1]; 75 mg/mL in WFI, 2-8 and 60° C., 0, 3, 7 and 14 days): The lower the pH, the greater the drug stability | pH decrease ([1]; 75 mg/mL in water at pH 7.0, 60° C., after 14 days): 1-2 pH units | pH stability ([1]; 75 mg/mL in water at pH 7.0, refrigerated condition): relatively stable | chemical stability, air sparged versus non-sparged sample ([1]; 75 mg/mL in water pH 7, 60° C.): better stability | degradation lower than that from the control sample ([1]; 75 mg/mL in water pH 7, all samples stored at 60° C., after 14 days): 3-6% | "apparent" pKa [2]: 9.02
